Measurements as given in patent publication US20210284618A1, “FURANOCHALCONES AS INHIBITORS OF CYP1A1, CYP1A2 AND CYP1B1 FOR CANCER CHEMOPREVENTION” (Council of Scientific & Industrial Research, priority 2016, published 2021).
pIC50: −log10 of the molar value. Where “and” joins values, the source holds several entries; their conditions need not be identical. Identical values can stand only once.

Key:
[1] = molecular target: T1, CYP1A1 (Homo sapiens, UniProt P04798); assay: In-vitro CYP450 1A1 enzyme inhibition in Saccharosomes; format: biochemical
T1 construct: host or cells: yeast microsomes (Saccharosomes)
T1 sequence (P04798 1-512): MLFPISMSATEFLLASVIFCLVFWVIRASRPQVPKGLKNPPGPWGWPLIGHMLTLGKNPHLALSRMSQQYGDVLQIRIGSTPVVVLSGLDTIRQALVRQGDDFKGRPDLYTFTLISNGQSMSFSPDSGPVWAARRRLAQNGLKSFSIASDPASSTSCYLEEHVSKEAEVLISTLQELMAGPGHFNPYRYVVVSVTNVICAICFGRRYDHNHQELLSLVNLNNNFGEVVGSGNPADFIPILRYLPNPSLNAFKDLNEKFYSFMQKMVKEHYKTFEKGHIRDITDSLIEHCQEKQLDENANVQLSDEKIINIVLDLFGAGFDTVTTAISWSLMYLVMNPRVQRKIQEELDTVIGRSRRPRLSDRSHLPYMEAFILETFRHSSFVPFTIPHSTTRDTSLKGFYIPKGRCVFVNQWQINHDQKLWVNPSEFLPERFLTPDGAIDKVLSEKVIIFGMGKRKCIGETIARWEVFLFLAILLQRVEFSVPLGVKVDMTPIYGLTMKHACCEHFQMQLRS
Description: Example 23. In-vitro CYP450 1A1 enzyme inhibition in Saccharosomes™: The screening method utilizes 384-well microplates to rapidly ascertain relative percentage inhibition of CYP1A1 by a library of compounds. Each reaction was performed in black, clear-bottomed 384-well microplates. A reaction volume of 50 μl comprised of 0.5 pmol of the cytochrome P450 CYP1A1 (Saccharosomes), 5 μM of ethoxyresorufin substrate (which contributes 0.05% DMSO to the well), 10 μM of potential inhibitor test article (which contributes 0.5% DMSO to the well), A P450 reductase NADPH regenerating system (1.3 mM NADP+, 3.3 mM glucose-6-0.02 units phosphate and glucose-6-Phosphate dehydrogenase), potassium phosphate buffer (final well concentration 100 mM, pH 7.4) and water. Very small quantities of magnesium chloride and sodium citrate are added to the NADPH regenerating system, in line with standard published protocols. The potential inhibitor (test article) was pre-incubated with CYP1A1 of at least 20 minutes at 30° C. After this period, the remainder of the reagents required in the assay was added to initiate the process. The reaction mixture was incubated for another 20 minutes at 30° C. The reaction was stopped by adding an 80% acetonitrile, 20% 0.5 M Tris solution. The reactions were monitored using the Biotek Synergy HT plate reader by measuring the endpoint reaction at Excitation 530/(25 bandwidth) & Emission 590/(20 bandwidth) using a gain/sensitivity setting of 60. The mean of the quadruplicates of the negative control (solvent inactivated CYP1A1) was deducted from the mean of potential inhibitor (test article) samples. The percentage was then derived relative to the mean of the wells without inhibitor.
(§1) Example 25. IC50 determination for best compound against CYP1A1, CYP1B1 and other CYPs in Saccharosomes. Compounds were serially diluted to six different concentrations with 10% DMSO in a Sero-Well white microplate. The experiment was performed in a similar way as described above in examples 23 and 24.

[2] = molecular target: T2, CYP2C9 (Homo sapiens, UniProt P11712); assay: CYP2C9 inhibition in Saccharosomes; format: biochemical; details: Saccharosomes containing CYP2C9
T2 construct: host or cells: yeast microsomes (Saccharosomes)
T2 sequence (P11712 whole entry): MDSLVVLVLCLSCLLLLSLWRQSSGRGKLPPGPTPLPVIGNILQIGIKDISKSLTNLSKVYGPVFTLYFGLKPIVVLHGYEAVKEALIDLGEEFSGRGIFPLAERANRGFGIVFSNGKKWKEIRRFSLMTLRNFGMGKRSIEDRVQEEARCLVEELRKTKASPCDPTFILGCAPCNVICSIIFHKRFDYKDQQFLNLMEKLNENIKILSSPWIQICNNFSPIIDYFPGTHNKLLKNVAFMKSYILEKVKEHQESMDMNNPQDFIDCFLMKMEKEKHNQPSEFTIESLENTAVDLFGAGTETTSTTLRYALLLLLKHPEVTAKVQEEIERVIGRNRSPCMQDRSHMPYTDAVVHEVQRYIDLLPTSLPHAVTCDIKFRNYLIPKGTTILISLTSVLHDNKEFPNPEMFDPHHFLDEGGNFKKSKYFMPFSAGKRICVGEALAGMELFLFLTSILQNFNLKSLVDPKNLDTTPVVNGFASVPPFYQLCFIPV

[3] = molecular target: T3, CYP2C19 (Homo sapiens, UniProt P33261); assay: CYP2C19 inhibition in Saccharosomes; format: biochemical; details: Saccharosomes containing CYP2C19
T3 construct: host or cells: yeast microsomes (Saccharosomes)
T3 sequence (P33261 whole entry): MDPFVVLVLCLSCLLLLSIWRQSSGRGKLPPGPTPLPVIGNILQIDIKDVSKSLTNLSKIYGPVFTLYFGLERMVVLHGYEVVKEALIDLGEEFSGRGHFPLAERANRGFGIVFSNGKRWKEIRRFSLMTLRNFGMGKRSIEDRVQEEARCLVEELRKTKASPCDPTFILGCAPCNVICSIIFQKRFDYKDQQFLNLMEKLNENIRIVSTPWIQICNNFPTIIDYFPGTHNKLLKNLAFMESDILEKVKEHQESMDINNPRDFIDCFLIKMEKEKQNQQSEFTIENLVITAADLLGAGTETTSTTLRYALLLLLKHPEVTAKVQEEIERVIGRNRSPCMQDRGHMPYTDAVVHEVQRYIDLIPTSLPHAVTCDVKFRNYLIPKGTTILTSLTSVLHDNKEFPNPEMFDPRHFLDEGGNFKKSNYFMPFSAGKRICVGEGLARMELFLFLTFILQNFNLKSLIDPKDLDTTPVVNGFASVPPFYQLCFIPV

[4] = molecular target: T4, CYP2D6 (Homo sapiens, UniProt P10635); assay: CYP2D6 inhibition in Saccharosomes; format: biochemical
T4 construct: host or cells: yeast microsomes (Saccharosomes)
T4 sequence (P10635 whole entry): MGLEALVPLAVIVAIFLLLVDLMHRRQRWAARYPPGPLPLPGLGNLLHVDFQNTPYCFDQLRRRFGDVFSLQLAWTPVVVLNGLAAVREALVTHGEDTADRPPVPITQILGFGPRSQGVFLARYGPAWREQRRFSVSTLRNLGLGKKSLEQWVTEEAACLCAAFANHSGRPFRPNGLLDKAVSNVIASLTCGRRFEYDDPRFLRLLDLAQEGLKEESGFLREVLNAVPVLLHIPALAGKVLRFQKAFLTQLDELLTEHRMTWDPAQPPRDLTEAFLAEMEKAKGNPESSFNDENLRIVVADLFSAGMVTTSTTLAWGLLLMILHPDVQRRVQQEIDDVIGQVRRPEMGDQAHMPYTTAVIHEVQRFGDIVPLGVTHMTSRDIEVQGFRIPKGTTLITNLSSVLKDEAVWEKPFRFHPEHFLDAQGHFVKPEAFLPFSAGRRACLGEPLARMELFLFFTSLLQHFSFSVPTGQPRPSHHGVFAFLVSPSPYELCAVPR
Description: as §1

[5] = molecular target: T5, CYP2E1 (Homo sapiens, UniProt P05181); assay: CYP2E1 inhibition in Saccharosomes; format: biochemical
T5 construct: host or cells: yeast microsomes (Saccharosomes)
T5 sequence (P05181 whole entry): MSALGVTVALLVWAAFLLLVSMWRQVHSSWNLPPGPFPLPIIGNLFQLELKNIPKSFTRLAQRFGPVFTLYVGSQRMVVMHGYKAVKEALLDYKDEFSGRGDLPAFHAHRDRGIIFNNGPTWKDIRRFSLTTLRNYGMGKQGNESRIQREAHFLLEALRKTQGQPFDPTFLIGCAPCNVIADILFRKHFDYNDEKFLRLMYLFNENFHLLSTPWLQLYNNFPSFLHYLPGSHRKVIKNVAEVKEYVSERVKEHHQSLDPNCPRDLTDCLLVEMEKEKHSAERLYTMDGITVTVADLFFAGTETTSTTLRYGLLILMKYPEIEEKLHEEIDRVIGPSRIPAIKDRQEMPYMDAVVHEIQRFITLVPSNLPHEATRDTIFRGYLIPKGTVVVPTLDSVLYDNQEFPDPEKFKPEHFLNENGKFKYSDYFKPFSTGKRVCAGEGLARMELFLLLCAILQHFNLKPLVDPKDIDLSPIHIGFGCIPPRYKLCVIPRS
Description: as §1

[6] = molecular target: T6, CYP1B1 (Homo sapiens, UniProt Q16678); assay: CYP1B1 inhibition in live human cells (HEK293); format: cell-based
T6 sequence (Q16678 1-543): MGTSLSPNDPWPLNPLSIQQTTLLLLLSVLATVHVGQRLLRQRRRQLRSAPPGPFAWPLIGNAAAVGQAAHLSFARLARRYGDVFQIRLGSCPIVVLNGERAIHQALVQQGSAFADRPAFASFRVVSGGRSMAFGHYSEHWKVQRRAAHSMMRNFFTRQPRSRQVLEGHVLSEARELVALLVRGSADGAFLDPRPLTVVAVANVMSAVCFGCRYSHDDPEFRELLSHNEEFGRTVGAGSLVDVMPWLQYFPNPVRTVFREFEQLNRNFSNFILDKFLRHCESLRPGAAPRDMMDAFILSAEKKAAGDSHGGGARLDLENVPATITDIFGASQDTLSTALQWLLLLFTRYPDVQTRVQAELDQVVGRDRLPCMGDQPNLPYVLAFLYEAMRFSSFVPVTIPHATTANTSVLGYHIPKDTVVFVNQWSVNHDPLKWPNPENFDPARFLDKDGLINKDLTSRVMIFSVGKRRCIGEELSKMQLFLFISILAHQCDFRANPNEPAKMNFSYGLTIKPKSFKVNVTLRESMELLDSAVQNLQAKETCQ

[7] = molecular target: T6, CYP1B1; assay: In-vitro CYP450 1B1 enzyme inhibition in Saccharosomes; format: biochemical; parameters: purchased CYP Design Ltd; host or cells: yeast microsomes (Saccharosomes)
Description: Example 24. In-vitro CYP450 1B1 enzyme inhibition in Saccharosomes™: Regenerating system consists of: 5 μl Solution A (183 mg of NADP++183 mg of glucose-6-phosphate+654 μl of 1.0 M magnesium chloride solution+9.15 ml of sterile ultra-pure water)+1 μl Solution B (250 Units of glucose-6-phosphate dehydrogenase+6.25 ml of 5 mM sodium citrate; mixed in a tube and made up to 10 ml with sterile ultra-pure water)+39 μl 0.2 M Kpi (0.6 ml of 1.0M K2HPO4+9.4 ml of 1.0 M KH2PO4 were mixed and made up to 50 ml with sterile ultra-pure water)+5 μl potential inhibitory compound.
as §1

pIC50 [1]: 6.47
% inhibition of CYP1A1 in Saccharosomes at 10 μM ([1]; 10 μM test compound, 5 μM ethoxyresorufin): 97% and 97.2%
inhibition at 20 min, 10 μM ([1]; human, Saccharosomes containing CYP1A1, pH 7.4, probe ethoxyresorufin (5 μM), % inhibition of CYP1A1 in Saccharosomes at 10 μM, 10 μM test compound, 5 μM ethoxyresorufin): > 80%
inhibition at 20 µM [2]: 62%
inhibition at 20 µM [3]: 7%
pIC50 [4]: 5.15
inhibition at 20 µM ([4]; human, Saccharosomes containing CYP2D6, 20 μM): 84%
Inhibition of CYP2E1 at 10 μM [5]: No Inhibition
IC50 [6]: 265 nM
melting point: 112 to 114 °C
pIC50 [7]: 6.18
% inhibition of CYP1B1 in Saccharosomes at 10 μM ([7]; 10 μM test compound, 7-ethoxyresorufin, 10 µM): 80.3%
inhibition at 10 μM ([7]; human, Saccharosomes (yeast-derived) with recombinant CYP1B1, probe 7-ethoxyresorufin (5 μl of 0.1 mM), % inhibition of CYP1B1 in Saccharosomes at 10 μM, 10 μM test compound, 7-ethoxyresorufin): > 80%
Compound: COc1c(C(=O)/C=C/c2cccnc2)c(O)c(OC)c2occc12 [Compound 8, 3-(4,7-dimethoxy-6-hydroxybenzofuran-5-yl)-1-(pyridin-3-yl)-3-oxopropene]
